Measurements as given in ChEMBL document CHEMBL3872259, “Synthesis, characterization, and in vitro SAR evaluation of N,N'-bis(arylmethyl)-C2-alkyl substituted imidazolium salts” (Bioorg Med Chem Lett, 2017).
One block for each compound: values may come before it.

Key:
[1] = Antiproliferative activity against human HOP62 cells assessed as cell growth at 10 uM measured after 48 hrs by sulforhodamine B assay relative to control; type: functional; details: HOP-62, 48 h, read-out: Activity
[2] = Antiproliferative activity against human EKVX cells assessed as cell growth at 10 uM measured after 48 hrs by sulforhodamine B assay relative to control; type: functional; details: read-out: Activity
[3] = Antiproliferative activity against human A549/ATCC cells assessed as cell growth at 10 uM measured after 48 hrs by sulforhodamine B assay relative to control; type: functional; details: A549, 48 h, read-out: Activity
[4] = Antiproliferative activity against human NCI-H460 cells assessed as reduction in cell viability measured after 72 hrs by MTT assay; type: functional, cell-based; details: NCI-H460, 72 h; for CC50: read-out: LC50 (the source's name)
[5] = Antiproliferative activity against human NCI-H1975 cells assessed as reduction in cell viability measured after 72 hrs by MTT assay; type: functional, cell-based; details: NCI-H1975, 72 h
[6] = Antiproliferative activity against human HCC827 cells assessed as reduction in cell viability measured after 72 hrs by MTT assay; type: functional, cell-based; details: HCC827, 72 h
[7] = Antiproliferative activity against human A549 cells assessed as reduction in cell viability measured after 72 hrs by MTT assay; type: functional, cell-based; details: A549, 72 h
[8] = Aqueous solubility of the compound; type: physicochemical; details: buffer
[9] = Antiproliferative activity against human HOP92 cells assessed as cell growth at 10 uM measured after 48 hrs by sulforhodamine B assay relative to control; type: functional; details: HOP-92, 48 h, read-out: Activity
[10] = Antiproliferative activity against human NCI-H226 cells assessed as cell growth at 10 uM measured after 48 hrs by sulforhodamine B assay relative to control; type: functional; details: NCI-H226, 48 h, read-out: Activity
[11] = Antiproliferative activity against human NCI-H23 cells assessed as cell growth at 10 uM measured after 48 hrs by sulforhodamine B assay relative to control; type: functional; details: NCI-H23, 48 h, read-out: Activity
[12] = Antiproliferative activity against human NCI-H322M cells assessed as cell growth at 10 uM measured after 48 hrs by sulforhodamine B assay relative to control; type: functional; details: read-out: Activity
[13] = Antiproliferative activity against human NCI-H460 cells assessed as cell growth at 10 uM measured after 48 hrs by sulforhodamine B assay relative to control; type: functional; details: NCI-H460, 48 h, read-out: Activity
[14] = Antiproliferative activity against human NCI-H522 cells assessed as cell growth at 10 uM measured after 48 hrs by sulforhodamine B assay relative to control; type: functional; details: NCI-H522, 48 h, read-out: Activity
[15] = Growth inhibition of human EKVX cells measured after 48 hrs by sulforhodamine B assay; type: functional; details: for CC50: read-out: LC50 (the source's name)
[16] = Growth inhibition of human HOP62 cells measured after 48 hrs by sulforhodamine B assay; type: functional; details: HOP-62, 48 h; for CC50: read-out: LC50 (the source's name)
[17] = Growth inhibition of human HOP92 cells measured after 48 hrs by sulforhodamine B assay; type: functional; details: HOP-92, 48 h; for CC50: read-out: LC50 (the source's name)
[18] = Growth inhibition of human NCI-H226 cells measured after 48 hrs by sulforhodamine B assay; type: functional; details: NCI-H226, 48 h; for CC50: read-out: LC50 (the source's name)
[19] = Growth inhibition of human NCI-H23 cells measured after 48 hrs by sulforhodamine B assay; type: functional; details: NCI-H23, 48 h; for CC50: read-out: LC50 (the source's name)
[20] = Growth inhibition of human NCI-H322M cells measured after 48 hrs by sulforhodamine B assay; type: functional; details: for CC50: read-out: LC50 (the source's name)
[21] = Growth inhibition of human NCI-H522 cells measured after 48 hrs by sulforhodamine B assay; type: functional; details: NCI-H522, 48 h

Structure (SMILES): CCc1n(Cc2ccc3ccccc3n2)cc[n+]1Cc1ccc2ccccc2n1.[Cl-]
growth at 10 µM [1]: 40.9%
growth at 10 µM [2]: 31.9%
growth at 10 µM [3]: 57.4%
GI50 [4]: 511 nM
IC50 [4]: 6 µM
TGI [4]: 11.9 µM
CC50 [4]: 45.7 µM
IC50 [5]: < 1000 nM
IC50 [6]: 9 µM
GI50 [7]: 5.27 µM
IC50 [7]: 11 µM
LC50 [7]: > 100 µM
TGI [7]: > 100 µM
solubility [8]: > 80 mM
growth at 10 µM [9]: -11.8%
growth at 10 µM [10]: 48.4%
growth at 10 µM [11]: 16%
growth at 10 µM [12]: 73.1%
growth at 10 µM [13]: 34.8%
growth at 10 µM [14]: -3.51%
GI50 [15]: 343 nM
TGI [15]: 41.5 µM
CC50 [15]: > 100 µM
GI50 [16]: 4.66 µM
TGI [16]: 31.5 µM
CC50 [16]: > 100 µM
GI50 [17]: 18.3 nM
TGI [17]: 521 nM
CC50 [17]: 19.7 µM
GI50 [18]: 2560 nM
TGI [18]: 30.8 µM
CC50 [18]: > 100 µM
GI50 [19]: 275 nM
TGI [19]: 8.66 µM
CC50 [19]: > 100 µM
GI50 [20]: 6.33 µM
TGI [20]: 41.9 µM
CC50 [20]: > 100 µM
GI50 [21]: 83.7 nM
LC50 (50% lethal concentration) [21]: 37.9 µM
TGI [21]: 1490 nM

solubility [8]: > 10 mM
Structure (SMILES): [Cl-].c1ccc(-c2n(Cc3ccc4ccccc4n3)cc[n+]2Cc2ccc3ccccc3c2)cc1
IC50 [4]: 3 µM
IC50 [5]: 2000 nM
IC50 [6]: 6 µM
IC50 [7]: 4 µM

Structure (SMILES): CCc1n(Cc2ccc3ccccc3n2)cc[n+]1Cc1ccc2ccccc2c1.[Br-]
growth at 10 µM [1]: 1.85%
growth at 10 µM [2]: 15.9%
growth at 10 µM [3]: 37.3%
GI50 [4]: 456 nM
IC50 [4]: 2 µM
TGI [4]: 10.8 µM
CC50 [4]: 49.5 µM
IC50 [5]: < 1000 nM
IC50 [6]: 5 µM
GI50 [7]: 0.997 µM
IC50 [7]: 3 µM
LC50 [7]: 46.1 µM
TGI [7]: 14.1 µM
solubility [8]: 5 mM
growth at 10 µM [9]: -20.1%
growth at 10 µM [10]: 19.6%
growth at 10 µM [11]: -4.2%
growth at 10 µM [12]: 34.8%
growth at 10 µM [13]: 11.1%
growth at 10 µM [14]: -27.4%
GI50 [15]: 442 nM
TGI [15]: 7.34 µM
CC50 [15]: 38.7 µM
GI50 [16]: 1.4 µM
TGI [16]: 7.02 µM
CC50 [16]: 32.1 µM
GI50 [17]: 184 nM
TGI [17]: 671 nM
CC50 [17]: 7.04 µM
GI50 [18]: 1060 nM
TGI [18]: 4.87 µM
CC50 [18]: 39.4 µM
GI50 [19]: 311 nM
TGI [19]: 3.23 µM
CC50 [19]: 37 µM
GI50 [20]: 2.86 µM
TGI [20]: 13.8 µM
CC50 [20]: 38.1 µM
GI50 [21]: 275 nM
LC50 (50% lethal concentration) [21]: 13.3 µM
TGI [21]: 986 nM

Structure (SMILES): CCCc1n(Cc2ccc3ccccc3n2)cc[n+]1Cc1ccc2ccccc2n1.[Cl-]
growth at 10 µM [1]: 51.7%
growth at 10 µM [2]: 58.1%
growth at 10 µM [3]: 62.8%
GI50 [4]: 2560 nM
IC50 [4]: 5 µM
TGI [4]: 11.7 µM
CC50 [4]: 39.8 µM
IC50 [5]: 1000 nM
IC50 [6]: 7 µM
GI50 [7]: 6.78 µM
IC50 [7]: 10 µM
LC50 [7]: > 100 µM
TGI [7]: > 100 µM
solubility [8]: > 80 mM
growth at 10 µM [9]: 16%
growth at 10 µM [10]: 38%
growth at 10 µM [11]: 13%
growth at 10 µM [12]: 72.1%
growth at 10 µM [13]: 34.2%
growth at 10 µM [14]: 22.8%
GI50 [15]: 12500 nM
TGI [15]: > 100 µM
CC50 [15]: > 100 µM
GI50 [16]: 4.28 µM
TGI [16]: 19.4 µM
CC50 [16]: 62.6 µM
GI50 [17]: 399 nM
TGI [17]: 3230 nM
CC50 [17]: 23.2 µM
GI50 [18]: 3400 nM
TGI [18]: 34.8 µM
CC50 [18]: > 100 µM
GI50 [19]: 865 nM
TGI [19]: 15 µM
CC50 [19]: > 100 µM
GI50 [20]: 4.68 µM
TGI [20]: 41.9 µM
CC50 [20]: > 100 µM
GI50 [21]: 601 nM
LC50 (50% lethal concentration) [21]: 27.1 µM
TGI [21]: 4300 nM

solubility [8]: > 80 mM
Structure (SMILES): [Cl-].c1ccc(-c2n(Cc3ccc4ccccc4n3)cc[n+]2Cc2ccc3ccccc3n2)cc1
IC50 [4]: 8 µM
IC50 [5]: 2000 nM
IC50 [6]: 8 µM
IC50 [7]: 14 µM
